This is an account of results in ChEMBL document CHEMBL5465560, “Selectivity Literature for EUbOPEN Chemogenomic Library” (2024).

In assay [1] the target is AP2-associated protein kinase 1 (Homo sapiens, UniProt Q2M2I8). The experiment in a line: Selectivity interaction (Kinase panel (DSF assay)) EUB0001489b AAK1. On the technique in general: Differential scanning fluorimetry follows unfolding on heating by fluorescence.
Assay [2] deals with Protein arginine N-methyltransferase 1 (Homo sapiens, UniProt Q99873). The experiment in a line: Selectivity interaction (Methyltransferase screen (Scintillation proximity assays)) EUB0000255b PRMT1. On the technique in general: In a scintillation proximity assay essentially only radioactivity close to the scintillant gives light.
In assay [3] the target is T1, Serine/threonine-protein kinase 17B (Homo sapiens) (UniProt O94768).
T1 sequence (whole entry): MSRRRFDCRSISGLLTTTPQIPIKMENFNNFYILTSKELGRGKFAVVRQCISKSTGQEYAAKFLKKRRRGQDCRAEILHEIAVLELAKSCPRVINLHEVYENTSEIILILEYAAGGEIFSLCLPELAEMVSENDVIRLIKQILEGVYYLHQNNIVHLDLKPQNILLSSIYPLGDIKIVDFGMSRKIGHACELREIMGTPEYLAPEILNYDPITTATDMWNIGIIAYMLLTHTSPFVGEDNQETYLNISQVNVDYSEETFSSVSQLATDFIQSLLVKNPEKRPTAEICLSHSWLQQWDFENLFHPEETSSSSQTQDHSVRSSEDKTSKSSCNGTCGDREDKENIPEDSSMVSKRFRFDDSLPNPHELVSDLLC
The experiment in a line: Selectivity interaction (KinomeScan (DiscoverX)) EUB0000595a STK17B. As to conditions: at 10 µM.

Assay [4] concerns the target Mitogen-activated protein kinase 10 (Homo sapiens, UniProt P53779). The experiment in a line: Selectivity interaction (ActivX KiNativ screen (ex vivo kinase selectivity in human PBMCs)) EUB0001619a MAPK10. The format is cell-based. As to conditions: PBMC, at 1 µM.
Assay [5] deals with Phosphatidylinositol 4,5-bisphosphate 3-kinase catalytic subunit beta isoform (Homo sapiens) (UniProt P42338). The experiment in a line: Selectivity interaction (KinomeScan (DiscoverX)) EUB0001619a PIK3CB. As to conditions: at 1 µM.
The target in assay [6] is T2, Serine/threonine-protein kinase Sgk2 (Homo sapiens) (UniProt Q9HBY8).
T2 sequence (whole entry): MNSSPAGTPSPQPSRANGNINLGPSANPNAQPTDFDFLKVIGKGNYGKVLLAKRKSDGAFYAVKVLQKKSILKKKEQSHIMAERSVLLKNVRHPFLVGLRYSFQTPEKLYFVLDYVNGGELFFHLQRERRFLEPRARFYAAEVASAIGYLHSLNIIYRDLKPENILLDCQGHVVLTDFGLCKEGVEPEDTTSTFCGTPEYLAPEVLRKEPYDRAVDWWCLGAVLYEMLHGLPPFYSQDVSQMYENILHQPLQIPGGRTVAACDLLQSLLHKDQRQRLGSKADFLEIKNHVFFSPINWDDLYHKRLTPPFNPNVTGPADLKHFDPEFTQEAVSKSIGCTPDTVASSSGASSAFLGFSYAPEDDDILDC
The experiment in a line: Selectivity interaction (SelectScreen profiling (Invitrogen)) EUB0000607a SGK2. As to conditions: at 2 µM.

Assay [7] has as its target Serine/threonine-protein kinase PRP4 homolog (Homo sapiens) (UniProt Q13523). As to conditions: at 10 µM.
Assay [8] deals with SRSF protein kinase 3 (Homo sapiens) (UniProt Q9UPE1). As to conditions: at 10 µM.
The target in assay [9] is Tyrosine-protein kinase BTK (Homo sapiens, UniProt Q06187). The experiment in a line: Selectivity interaction (ActivX KiNativ screen (kinase selectivity in THP-1 cell lysates)) EUB0000639a BTK. The format is subcellular. As to conditions: lysate, at 0.2 µM.
The target of assay [10] is Vascular endothelial growth factor receptor 2 (Homo sapiens, UniProt P35968). The experiment in a line: Selectivity interaction (KinomeScan (DiscoverX)) EUB0000045b KDR.
For assay [11], the target named is T3, MAP kinase-activated protein kinase 5 (Homo sapiens) (UniProt Q8IW41).
T3 sequence (whole entry): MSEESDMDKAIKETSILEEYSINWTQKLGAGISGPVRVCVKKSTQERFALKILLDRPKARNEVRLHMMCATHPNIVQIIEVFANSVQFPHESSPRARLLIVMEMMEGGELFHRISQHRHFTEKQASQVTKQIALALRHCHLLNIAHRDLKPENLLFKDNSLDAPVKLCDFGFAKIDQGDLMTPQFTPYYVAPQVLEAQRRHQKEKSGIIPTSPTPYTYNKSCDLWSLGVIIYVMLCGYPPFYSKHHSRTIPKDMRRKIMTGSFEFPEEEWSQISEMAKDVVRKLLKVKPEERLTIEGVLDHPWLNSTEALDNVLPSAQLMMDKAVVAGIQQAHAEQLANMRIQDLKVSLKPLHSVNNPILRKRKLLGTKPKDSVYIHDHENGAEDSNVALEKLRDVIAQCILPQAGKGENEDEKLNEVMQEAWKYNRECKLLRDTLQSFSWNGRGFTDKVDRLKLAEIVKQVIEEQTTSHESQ
Description: Selectivity interaction (KinomeScan (DiscoverX)) EUB0000655a MAPKAPK5. As to conditions: at 10 µM.

Assay [12] addresses Maternal embryonic leucine zipper kinase (Homo sapiens) (UniProt Q14680). The experiment in a line: Selectivity interaction (KinomeScan (DiscoverX)) EUB0000618a MELK. As to conditions: at 10 µM.
Assay [13] addresses T4, 5-hydroxytryptamine receptor 3A (Homo sapiens) (UniProt P46098).
T4 sequence (whole entry): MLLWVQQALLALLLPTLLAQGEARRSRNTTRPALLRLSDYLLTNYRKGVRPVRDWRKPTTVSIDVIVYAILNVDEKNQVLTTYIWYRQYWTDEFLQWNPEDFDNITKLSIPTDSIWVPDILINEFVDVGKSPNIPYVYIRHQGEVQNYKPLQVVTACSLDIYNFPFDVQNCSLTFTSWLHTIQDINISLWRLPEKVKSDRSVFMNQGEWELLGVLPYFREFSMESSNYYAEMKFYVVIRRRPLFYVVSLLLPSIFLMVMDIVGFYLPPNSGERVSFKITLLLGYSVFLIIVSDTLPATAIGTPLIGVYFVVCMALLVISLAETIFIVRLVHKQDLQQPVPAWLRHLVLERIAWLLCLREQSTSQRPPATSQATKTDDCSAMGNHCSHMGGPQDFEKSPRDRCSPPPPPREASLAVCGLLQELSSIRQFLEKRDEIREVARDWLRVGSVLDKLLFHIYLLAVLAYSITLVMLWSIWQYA
Description: Selectivity interaction (Panel of kinases, GPCRs, ion channels and transporters (enzymatic assay)) EUB0000266bCl HTR3A.

Assay [14] deals with Dual specificity mitogen-activated protein kinase kinase 1 (Homo sapiens, UniProt Q02750). Description: Selectivity interaction (KinomeScan (DiscoverX)) EUB0000229b MAP2K1. As to conditions: at 10 µM.

Structures are written as SMILES.

Chain of Protein arginine N-methyltransferase 1 (Q99873 whole entry, looked up): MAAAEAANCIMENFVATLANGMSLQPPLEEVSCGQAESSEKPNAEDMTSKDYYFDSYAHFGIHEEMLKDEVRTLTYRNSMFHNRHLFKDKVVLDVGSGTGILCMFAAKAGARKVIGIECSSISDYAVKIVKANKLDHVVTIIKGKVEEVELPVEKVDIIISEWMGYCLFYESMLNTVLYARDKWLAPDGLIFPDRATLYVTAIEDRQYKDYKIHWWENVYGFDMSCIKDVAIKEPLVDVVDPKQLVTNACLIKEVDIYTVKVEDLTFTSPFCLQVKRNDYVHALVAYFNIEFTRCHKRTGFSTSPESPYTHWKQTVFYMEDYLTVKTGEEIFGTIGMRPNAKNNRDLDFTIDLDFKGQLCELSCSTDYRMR
Chain of Vascular endothelial growth factor receptor 2 (P35968 whole entry): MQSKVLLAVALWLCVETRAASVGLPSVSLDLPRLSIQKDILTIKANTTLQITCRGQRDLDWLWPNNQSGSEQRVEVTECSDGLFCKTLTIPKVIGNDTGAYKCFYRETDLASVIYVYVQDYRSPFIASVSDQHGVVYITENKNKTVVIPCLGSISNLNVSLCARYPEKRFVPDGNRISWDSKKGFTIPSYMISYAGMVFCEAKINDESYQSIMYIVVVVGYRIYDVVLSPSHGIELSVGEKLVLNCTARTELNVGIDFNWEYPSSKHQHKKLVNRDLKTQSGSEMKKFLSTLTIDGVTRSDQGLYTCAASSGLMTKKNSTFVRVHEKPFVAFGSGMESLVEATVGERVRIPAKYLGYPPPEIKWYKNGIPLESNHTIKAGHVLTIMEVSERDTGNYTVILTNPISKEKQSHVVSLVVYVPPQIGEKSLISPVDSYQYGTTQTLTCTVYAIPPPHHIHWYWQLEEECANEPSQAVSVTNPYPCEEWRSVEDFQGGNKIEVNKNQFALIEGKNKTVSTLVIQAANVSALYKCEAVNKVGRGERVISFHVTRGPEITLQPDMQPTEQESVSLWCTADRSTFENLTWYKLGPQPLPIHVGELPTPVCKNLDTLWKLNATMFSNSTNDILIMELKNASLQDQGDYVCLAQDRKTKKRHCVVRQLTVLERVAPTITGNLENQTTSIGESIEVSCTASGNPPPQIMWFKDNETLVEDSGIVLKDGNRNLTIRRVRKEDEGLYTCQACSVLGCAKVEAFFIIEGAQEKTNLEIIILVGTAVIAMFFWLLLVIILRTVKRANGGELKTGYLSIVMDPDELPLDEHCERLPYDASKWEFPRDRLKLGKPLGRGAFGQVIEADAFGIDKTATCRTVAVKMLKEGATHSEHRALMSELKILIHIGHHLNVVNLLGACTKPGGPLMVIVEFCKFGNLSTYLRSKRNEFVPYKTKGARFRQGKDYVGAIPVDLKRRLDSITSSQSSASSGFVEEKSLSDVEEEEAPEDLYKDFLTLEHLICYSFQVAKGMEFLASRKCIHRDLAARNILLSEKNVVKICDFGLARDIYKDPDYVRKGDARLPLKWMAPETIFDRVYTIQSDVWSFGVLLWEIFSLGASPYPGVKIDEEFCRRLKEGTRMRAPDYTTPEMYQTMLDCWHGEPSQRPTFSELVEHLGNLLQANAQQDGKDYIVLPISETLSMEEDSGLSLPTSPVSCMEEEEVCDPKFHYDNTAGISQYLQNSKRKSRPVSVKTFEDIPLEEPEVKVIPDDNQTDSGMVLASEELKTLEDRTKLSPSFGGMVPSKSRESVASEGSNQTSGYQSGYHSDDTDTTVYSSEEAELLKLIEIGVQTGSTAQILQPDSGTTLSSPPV
Chain of AP2-associated protein kinase 1 (Q2M2I8 whole entry, looked up): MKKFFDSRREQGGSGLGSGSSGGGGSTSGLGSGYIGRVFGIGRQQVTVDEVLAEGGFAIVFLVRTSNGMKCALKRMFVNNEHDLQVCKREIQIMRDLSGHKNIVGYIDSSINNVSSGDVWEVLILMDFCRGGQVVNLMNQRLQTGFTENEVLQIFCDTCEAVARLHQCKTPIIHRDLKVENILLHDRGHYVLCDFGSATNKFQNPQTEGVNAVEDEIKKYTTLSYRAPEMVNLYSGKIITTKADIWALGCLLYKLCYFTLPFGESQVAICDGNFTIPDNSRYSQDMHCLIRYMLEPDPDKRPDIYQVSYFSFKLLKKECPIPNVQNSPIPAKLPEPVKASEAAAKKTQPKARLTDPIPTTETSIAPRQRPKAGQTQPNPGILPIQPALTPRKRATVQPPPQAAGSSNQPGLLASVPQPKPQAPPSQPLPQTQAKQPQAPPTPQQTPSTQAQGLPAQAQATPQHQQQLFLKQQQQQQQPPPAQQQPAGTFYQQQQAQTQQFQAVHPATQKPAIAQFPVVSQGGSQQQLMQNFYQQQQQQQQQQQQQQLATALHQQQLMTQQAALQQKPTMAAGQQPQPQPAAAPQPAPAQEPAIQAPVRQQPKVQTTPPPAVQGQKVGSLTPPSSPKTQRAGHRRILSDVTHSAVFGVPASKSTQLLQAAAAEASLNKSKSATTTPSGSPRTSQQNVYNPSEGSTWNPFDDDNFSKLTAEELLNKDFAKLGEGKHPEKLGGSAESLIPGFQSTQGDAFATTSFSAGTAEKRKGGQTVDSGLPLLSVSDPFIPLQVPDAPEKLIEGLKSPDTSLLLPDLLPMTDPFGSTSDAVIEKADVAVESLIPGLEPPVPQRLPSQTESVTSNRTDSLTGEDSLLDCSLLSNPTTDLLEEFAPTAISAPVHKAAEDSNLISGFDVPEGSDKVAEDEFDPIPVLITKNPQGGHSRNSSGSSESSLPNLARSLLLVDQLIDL
Chain of SRSF protein kinase 3 (Homo sapiens) (Q9UPE1 whole entry): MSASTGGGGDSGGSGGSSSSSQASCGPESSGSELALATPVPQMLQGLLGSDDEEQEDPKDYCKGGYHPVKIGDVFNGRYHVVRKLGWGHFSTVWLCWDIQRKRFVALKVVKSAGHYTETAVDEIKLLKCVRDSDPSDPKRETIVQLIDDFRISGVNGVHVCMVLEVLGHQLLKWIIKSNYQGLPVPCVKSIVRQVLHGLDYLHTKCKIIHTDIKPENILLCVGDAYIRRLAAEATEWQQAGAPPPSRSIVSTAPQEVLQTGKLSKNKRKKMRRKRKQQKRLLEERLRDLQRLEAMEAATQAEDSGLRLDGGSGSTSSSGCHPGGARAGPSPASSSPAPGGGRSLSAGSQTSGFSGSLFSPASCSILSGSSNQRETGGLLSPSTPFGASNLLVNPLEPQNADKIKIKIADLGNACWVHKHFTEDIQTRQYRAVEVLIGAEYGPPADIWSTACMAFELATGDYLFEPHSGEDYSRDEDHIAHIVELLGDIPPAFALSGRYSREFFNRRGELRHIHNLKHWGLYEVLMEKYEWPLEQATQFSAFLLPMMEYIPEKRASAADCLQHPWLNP
Chain of Tyrosine-protein kinase BTK (Q06187 whole entry): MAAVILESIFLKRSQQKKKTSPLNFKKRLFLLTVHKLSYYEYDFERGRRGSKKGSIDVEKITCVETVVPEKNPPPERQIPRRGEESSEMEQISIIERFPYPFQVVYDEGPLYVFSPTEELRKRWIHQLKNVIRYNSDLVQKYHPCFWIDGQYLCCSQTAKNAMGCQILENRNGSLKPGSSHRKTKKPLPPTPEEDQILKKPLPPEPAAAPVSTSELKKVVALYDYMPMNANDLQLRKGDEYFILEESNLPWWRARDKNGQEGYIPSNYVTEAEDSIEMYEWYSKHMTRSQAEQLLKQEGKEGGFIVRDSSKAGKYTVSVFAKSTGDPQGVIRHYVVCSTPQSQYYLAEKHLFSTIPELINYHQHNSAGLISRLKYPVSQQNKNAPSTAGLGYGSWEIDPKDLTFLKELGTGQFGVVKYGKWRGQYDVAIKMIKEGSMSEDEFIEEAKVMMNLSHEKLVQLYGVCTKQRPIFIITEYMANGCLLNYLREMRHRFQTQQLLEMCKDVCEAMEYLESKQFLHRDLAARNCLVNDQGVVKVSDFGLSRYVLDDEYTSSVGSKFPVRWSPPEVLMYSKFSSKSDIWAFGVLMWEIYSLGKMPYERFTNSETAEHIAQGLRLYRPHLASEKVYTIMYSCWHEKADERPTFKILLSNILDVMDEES
Chain of Maternal embryonic leucine zipper kinase (Homo sapiens) (Q14680 whole entry, looked up): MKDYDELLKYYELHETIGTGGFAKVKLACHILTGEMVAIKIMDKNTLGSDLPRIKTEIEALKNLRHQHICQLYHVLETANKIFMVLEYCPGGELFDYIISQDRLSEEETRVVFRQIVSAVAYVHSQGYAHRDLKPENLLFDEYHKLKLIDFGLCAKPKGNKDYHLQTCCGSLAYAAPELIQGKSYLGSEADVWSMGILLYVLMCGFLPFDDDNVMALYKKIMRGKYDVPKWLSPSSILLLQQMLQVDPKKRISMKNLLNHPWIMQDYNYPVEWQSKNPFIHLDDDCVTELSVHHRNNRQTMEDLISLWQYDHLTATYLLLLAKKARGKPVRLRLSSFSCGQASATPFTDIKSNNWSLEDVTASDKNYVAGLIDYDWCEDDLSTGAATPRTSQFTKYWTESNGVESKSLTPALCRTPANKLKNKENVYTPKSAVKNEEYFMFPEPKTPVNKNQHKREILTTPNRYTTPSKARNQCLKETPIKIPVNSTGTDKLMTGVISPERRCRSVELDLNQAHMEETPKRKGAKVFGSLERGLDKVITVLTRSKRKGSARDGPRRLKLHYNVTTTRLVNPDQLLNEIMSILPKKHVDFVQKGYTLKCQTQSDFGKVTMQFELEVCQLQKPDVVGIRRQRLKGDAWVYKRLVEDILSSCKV
Chain of Dual specificity mitogen-activated protein kinase kinase 1 (Q02750 whole entry): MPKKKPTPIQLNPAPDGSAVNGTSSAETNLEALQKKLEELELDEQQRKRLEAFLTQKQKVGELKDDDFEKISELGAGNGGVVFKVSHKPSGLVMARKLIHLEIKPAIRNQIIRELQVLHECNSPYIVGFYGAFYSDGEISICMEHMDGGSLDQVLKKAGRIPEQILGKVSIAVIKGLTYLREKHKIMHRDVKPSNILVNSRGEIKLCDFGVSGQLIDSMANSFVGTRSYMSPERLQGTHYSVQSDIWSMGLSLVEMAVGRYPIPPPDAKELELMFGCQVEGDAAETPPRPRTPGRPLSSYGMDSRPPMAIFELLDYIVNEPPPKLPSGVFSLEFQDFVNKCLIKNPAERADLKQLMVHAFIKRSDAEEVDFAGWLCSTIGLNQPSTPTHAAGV

`CN1CCN(C(=O)c2ccc3cc2OCCOCCNc2ccn4ncc-3c4n2)CC1` returned a dTM in [1] of 4.2 K.

As for `COCCN1CCC(c2cc(CN(C)C(=O)c3cccc(Oc4ccccc4)c3)ccn2)CC1`, the % activity is 82% in [2] (at 1 µM) and > 90% in assay [2] (at 10 µM). On to `COCC(=O)NC/C=C/c1ccc2ncnc(Nc3ccc(Oc4ccc(C)nc4)c(C)c3)c2c1` [CP-724714], for which, in assay [3], the % of control turned out to be 100%. Take `N#Cc1cccc(-c2c[nH]c3ncnc(N4CCOCC4)c23)c1`: in assay [4], the % of inhibition turned out to be 5%. Besides, the % of control in assay [5] is 100%. Turning to `CNC(=O)Nc1ccc(-c2nc(N3CC4CCC(C3)O4)c3cnn(C4CCC5(CC4)OCCO5)c3n2)cc1`, in assay [6], the % of inhibition turned out to be 5%. Consider `Cc1cc([C@@H](C)Nc2ccccc2C(=O)O)c2nc(N3CCOCC3)cc(=O)n2c1` [AZD-6482], for which the % of control is 71% in assay [7] and 100% in assay [8]. With `CC[C@@H]1[C@H](F)C(=O)N[C@@H]1COc1nccc2cc(C(N)=O)c(OC)cc12` [ZIMLOVISERTIB], in assay [9], the % of inhibition was -2.7%. As to `C=CC(=O)Nc1cc(-n2c(=O)ccc3cnc4ccc(-c5ccc(NS(C)(=O)=O)cc5)cc4c32)ccc1C`, the % of control is 97% in assay [10] (at 1 µM) and 100% in [10] (at 10 µM). `CN(C)CCOc1ccc(-c2nc(-c3ccncc3)c(-c3ccc4c(c3)CC/C4=N\O)[nH]2)cc1` gave a % of control in assay [11] of 100%.

In turn, `O[C@H]1CC[C@H](Nc2ncc3nc(Nc4c(F)cc(F)cc4F)n([C@H]4CCOC4)c3n2)CC1` came in with a % of control in assay [12] of 92%. On to `CCn1c(-c2nc3cc(C(=O)N4CCCC(N)C4)ccc3n2C)cc2ccccc21` (stereo unspecified), for which the pXC50 in [13] is < 4.3 M.

Turning to `COc1cc(N(C)c2ccnc3ccc(C(F)(F)F)cc23)cc(OC)c1OC`, the % binding in [14] is 68%.
